Assay results published in patent publication US7744921B2, “Liposome loading with metal ions” (Celator Pharmaceuticals, Inc., priority 2001, dated 2010).

What was measured:
[1] = Active (metal-based, citrate or ionophore) loading of drug into liposomes; spin column, drug-to-lipid ratio; type: physicochemical; conditions: for loading efficiency: 300 mM MnSO4, 37° C.
Description: Lipids were dissolved in chloroform solution and subsequently dried under a stream of nitrogen gas and placed in a vacuum pump to remove solvent. Unless otherwise specified, trace levels of radioactive lipid 3H-CHE were added to quantify lipid during the formulation process. The resulting lipid film was placed under high vacuum for a minimum of 2 hours. The lipid film was hydrated in the solution indicated to form multilamellar vesicles (MLVs). The resulting preparation was extruded 10 times through stacked polycarbonate filters with an extrusion apparatus (Lipex Biomembranes, Vancouver, BC) to achieve a mean liposome size between 80 and 150 nm. All constituent lipids of liposomes are reported in mole %.
At various time points after initiation of drug loading, aliquots were removed and passed through a Sephadex G-50 spin column to separate free from encapsulated drug. To a specified volume of eluant, Triton X-100 or N-ocyl beta-D-glucopyranoside (OGP) was added to solubilize the liposomes. Following addition of detergent, the mixture was heated to the cloud point of the detergent and allowed to cool to room temperature before measurement of the absorbance or fluorescence. Drug concentrations were calculated by comparison to a standard curve.
In order to determine whether copper loading of irinotecan in the absence of a pH gradient could occur using a cholesterol-free formulation, DSPC/DSPG (80:20 mole ratio) liposomes containing copper(II) gluconate were prepared with an external and internal pH of 7.4. […] The lipid films were hydrated in 100 mM Cu(II) gluconate adjusted to pH 7.4 with triethanolamine (TEA) and extruded at 70° C. […] Irinotecan was added to the liposome preparation at a 0.1:1 drug-to-lipid mole ratio and incubated at 50° C. The extent of drug loading was determined as described in the methods by measuring absorbance at 370 nm and lipid levels were determined by liquid scintillation counting.
Loading of daunorubicin into DSPC/DSPG (90:10 mole ratio) liposomes containing encapsulated CuSO4 buffered to pH 7.4 was also investigated. […] A solution of 150 mM CuSO4, 20 mM histidine (adjusted to pH 7.4 using TEA), was employed as the hydration medium and MLVs were extruded at 70° C. […] Daunorubicin was loaded at a 0.1:1 drug/lipid weight ratio. A drug-to-lipid ratio at various time points during loading was determined by measuring absorbance at 480 nm after solubilization in detergent to quantify daunorubicin as described; lipid levels were determined by liquid scintillation counting.
The liposomes were prepared as described in the methods by hydrating lipid films in a solution of 100 mM copper(II) gluconate adjusted to pH 7.4 with TEA. Liposomes were extruded at 65° C. and the external buffer of the liposomes was exchanged to SHE, pH 7.4 by tangential flow dialysis. Liposomes were incubated with irinotecan at a 0.1:1 drug-to-lipid weight ratio at 50° C. and the extent of drug loading was determined as described by measuring absorbance at 370 nm after solubilization by detergent.
In addition to copper loading, loading of drug using MnSO4 containing liposomes in the absence of a pH gradient was also investigated. […] Lipids films were prepared as described and hydrated in 300 mM MnSO4 buffered to pH 7.4 with 20 mM imidazole (initial pH was adjusted to 7.4 with concentrated HCl) and extrusion was carried out at 70° C. The samples were run down a Sephadex G-50 column to exchange the exterior buffer with SHE, pH 7.4.

[2] = as above; type: physicochemical; conditions: for sequential loading of two drugs into a single liposome (in words): 300 mM CuSO4, 60° C., irinotecan 0.2:1 then doxorubicin 0.15:1 mole ratio
[3] = Effect of buffer composition on precipitation of metal ion (20 mM histidine, triethanolamine to pH 7.4, visual inspection); type: physicochemical; design: key: ppt: represents that the formation of a precipitate occurred after the addition of triethanolamine within a time course of 10 minutes; no ppt: represents that the formation of a precipitate did not occur after addition of triethanolamine to achieve a pH of 7.4 and within a time course of 10 minutes; conditions: pH 7.4, 10 minutes
[4] = Precipitation of MnSO4 in pH 7.4 HEPES buffer (metal compatible solution); type: physicochemical; conditions: 300 mM solution of MnSO4 in pH 7.4 HEPES buffer
Description: Preferably, the metal solution should be clear and soluble, free of aggregation, precipitation or flocculation for at least about 4 hours. By way of example, a 300 mM solution of MnSO4 in pH 7.4 HEPES buffer as described in Cheung, et al. [supra] is not a metal compatible solution as it produces an obvious brown precipitate of Mn(OH)2 comprising approximately 6-7 molar % of the manganese added to the solution.
An alternative preferred method of determining whether a metal solution is metal compatible is by centrifugation (e.g. 100 ml sample at 1000 rpm for 10 minutes) to collect any precipitate, measuring the amount of precipitate collected and determining the proportion of the metal added to the original solution present in the precipitate. The amount of metal in the precipitate should not exceed about 1 molar % of the amount of metal added to the original solution.

[5] = Drug-to-lipid ratio of passively encapsulated first drug before/after loading of second drug; conditions: DSPC/DSPG (80:20)
Description: Prior to measurement of absorbance, liposomes were solubilized in a solution containing Triton X-100.
Samples were extruded and external buffers exchanged into SHE, pH 7.4, using a hand-held tangential flow dialysis column. […] Atomic absorption spectrometry (AA) was used to determine carboplatin concentrations and absorbance at 370 nm was measured to determine irinotecan concentrations.

[6] = DPPC/DSPE-PEG2000 (95:5), pH gradient citrate loading (300 mM citrate, pH 4.0), 37° C.
[7] = 150 mM metal in 20 mM histidine
[8] = 300 mM metal in 20 mM histidine

Compound: COc1cccc2c1C(=O)c1c(O)c3c(c(O)c1C2=O)C[C@@](O)(C(=O)CO)C[C@@H]3O[C@H]1C[C@H](N)[C@@H](O)[C@H](C)O1 [epirubicin]
- loading (in words) ([1]; DSPC/DSPE-PEG2000 (95:5), 300 mM MnSO4, 20 mM imidazole pH 7.4 internal, SHE pH 7.4 external, no pH gradient, 60° C., weight ratio 0.2:1): efficient encapsulation of drug occurred at each time point measured
- drug accumulation ([2]; DSPC/DSPE-PEG2000 (95:5), 300 mM CuSO4, SHE pH 7.4, weight ratio 0.2:1, 60° C., within 5 minutes): > 95%

Compound: COc1cccc2c1C(=O)c1c(O)c3c(c(O)c1C2=O)C[C@@](O)(C(=O)CO)C[C@@H]3O[C@H]1C[C@H](N)[C@H](O)[C@H](C)O1 [doxorubicin]
- time to essentially complete loading ([1]; DMPC/Chol (55:45), 300 mM citrate pH 3.5, external HBS, 60° C., weight ratio 0.2:1): ≤ 5 min
- loading efficiency ([1]; DPPC/DSPE-PEG2000 (95:5), initial drug/lipid weight ratio 0.1:1): > 95%
- loading efficiency ([1]; DPPC/DSPE-PEG2000 (95:5), initial drug/lipid weight ratio 0.2:1): > 90%
- encapsulation efficiency as doxorubicin/lipid weight ratio increased from 0.1 to 0.3 (in words) [1, 6]: substantial reduction in encapsulation efficiency
- added drug encapsulated ([1]; DSPC/Chol (55:45), 300 mM CoCl2, SHE pH 7.5, weight ratio 0.1:1, 60° C., within 10 minutes): > 90%
- leakage during vincristine encapsulation (in words) ([1]; DSPC/Chol (55:45), 300 mM MnSO4, doxorubicin preloaded at 0.2:1 wt/wt, vincristine loading at 50° C.): no significant leakage
- accumulation relative to MnSO4 and citrate loading (in words) ([2]; DMPC/Chol (55:45), 300 mM MnCl2, external SHE pH 7.5, 60° C., weight ratio 0.2:1): less complete
- time to essentially complete loading ([2]; DMPC/Chol (55:45), 300 mM MnSO4, external SHE pH 7.5, 60° C., weight ratio 0.2:1): ≤ 5 min
- loading efficiency ([2]; DPPC/DSPE-PEG2000 (95:5), 300 mM MnSO4, 37° C., initial drug/lipid weight ratio 0.3:1): > 80%
- maximum drug-to-lipid weight ratio achieved [2, 6]: < 0.075
- sequential loading of two drugs into a single liposome (in words) ([2]; DSPC/Chol (55:45)): efficiently loaded

Compound: CC[C@@]1(O)C(=O)OCc2c1cc1n(c2=O)Cc2cc3c(CN(C)C)c(O)ccc3nc2-1 [topotecan]
- loading complete ([2]; DSPC/Chol (55:45), 300 mM CuSO4, SHE pH 7.4, weight ratio 0.1:1, 37° C., within 30 minutes): > 95%

Compound: Copper
- precipitation after addition of triethanolamine: Chloride [3, 7]: no ppt
- precipitation after addition of triethanolamine: Sulfate [3, 7]: no ppt
- precipitation after addition of triethanolamine: Chloride [3, 8]: no ppt
- precipitation after addition of triethanolamine: Nitrate [3, 8]: no ppt
- precipitation after addition of triethanolamine: Sulfate [3, 8]: no ppt

Compound: CCc1c2c(nc3ccc(OC(=O)N4CCC(N5CCCCC5)CC4)cc13)-c1cc3c(c(=O)n1C2)COC(=O)[C@]3(O)CC [irinotecan]
- time to almost complete loading ([1]; DPPC/Chol (55:45), 100 mM Cu(II) gluconate pH 7.4 internal, SHE pH 7.4 external, no pH gradient, 50° C., weight ratio 0.1:1): about 60 minutes
- loading complete ([1]; DSPC/DSPE-PEG2000 (95:5), 300 mM MnSO4, SHE pH 7.4, 60° C., weight ratio 0.1:1, 30-minute time point): 10%
- time to essentially complete loading ([1]; DSPC/DSPG (80:20) liposomes, 100 mM Cu(II) gluconate pH 7.4 (TEA) internal, SHE pH 7.4 external, no pH gradient, 50° C., drug-to-lipid mole ratio 0.1:1): ≤ 5 min
- loading after chelation column versus after exchange into EDTA-containing solution (in words) ([1]; DSPC/DSPG (80:20), 150 mM copper gluconate pH 7.4, 37, 50 and 60° C., weight ratio 0.1:1): comparable
- sequential loading of two drugs into a single liposome (in words) ([2]; DSPC/Chol (55:45)): efficiently loaded
- encapsulation ([2]; DSPC/Chol (55:45), 300 mM CuSO4, SHE pH 7.5, drug-to-lipid mole ratio 0.2:1, 60° C., loaded first): approximately 100%
- loading ([2]; DSPC/DSPE-PEG2000 (95:5), 300 mM CuSO4, SHE pH 7.4, 60° C., weight ratio 0.1:1, within 5 minutes): greater than 95%
- loading (in words) ([2]; DSPC/DSPG (80:20), 150 mM CuSO4 pH 7.4, exchanged into solution not containing a chelating agent, 37, 50 and 60° C., weight ratio 0.1:1): reduced rate
- loading (in words) ([2]; DSPC/DSPG (80:20), 150 mM CuSO4 pH 7.4, passed through Chelex-100 column, 37, 50 and 60° C., weight ratio 0.1:1): enhanced
- loading (in words) ([2]; FUDR-containing DSPC/Chol/DSPG (70:10:20), 100 mM Cu(II) gluconate, 220 mM TEA pH 7.4, external HBS or sucrose/HEPES pH 7.4, 50° C., mole ratio 0.1:1): efficiently loads
- loading (in words) ([2]; FUDR-containing DSPC/DSPG (85:15), 100 mM Cu(II) gluconate, 220 mM TEA pH 7.4, external 300 mM sucrose, 20 mM HEPES pH 7.4, 50° C., mole ratio 0.1:1): efficient loading of the drug occurred throughout the time course of the experiment
- loading (in words) ([2]; carboplatin-containing DSPC/DSPG (80:20), 150 mM CuSO4 pH 7.4, SHE pH 7.4 external, 60° C., weight ratio 0.1:1): loads to a high degree

Compound: Zinc
- precipitation after addition of triethanolamine: Chloride [3, 7]: ppt
- precipitation after addition of triethanolamine: Sulfate [3, 7]: ppt
- precipitation after addition of triethanolamine: Chloride [3, 8]: ppt
- precipitation after addition of triethanolamine: Sulfate [3, 8]: ppt

Compound: O=S(=O)([O-])[O-].[Mn+2] [MnSO4 in pH 7.4 HEPES buffer, MnSO4]
- proportion of added manganese in Mn(OH)2 precipitate [4]: 6-7 molar %

Compound: [Cd] [Cadmium]
- precipitation after addition of triethanolamine: Chloride [3, 7]: ppt
- precipitation after addition of triethanolamine: Sulfate [3, 7]: no ppt
- precipitation after addition of triethanolamine: Chloride [3, 8]: ppt
- precipitation after addition of triethanolamine: Sulfate [3, 8]: no ppt

Compound: N.N.O=C([O-])C1(C(=O)[O-])CCC1.[Pt+2] [carboplatin]
- carboplatin drug-to-lipid weight ratio after loading of irinotecan ([5]; 150 mM CuSO4 pH 7.4, irinotecan loaded at 60° C.): 0.025
- initial carboplatin drug-to-lipid weight ratio ([5]; 150 mM CuSO4 pH 7.4, passively encapsulated): 0.030

Compound: [Mn+2] [Manganese]
- precipitation after addition of triethanolamine: Chloride [3, 7]: ppt
- precipitation after addition of triethanolamine: Sulfate [3, 7]: no ppt
- precipitation after addition of triethanolamine: Chloride [3, 8]: ppt
- precipitation after addition of triethanolamine: Sulfate [3, 8]: no ppt

Compound: CC[C@]1(O)C[C@H]2CN(CCc3c([nH]c4ccccc34)[C@@](C(=O)OC)(c3cc4c(cc3OC)N(C=O)[C@H]3[C@@](O)(C(=O)OC)[C@H](OC(C)=O)[C@]5(CC)C=CCN6CC[C@]43[C@@H]65)C2)C1 [vincristine]
- incubation time to near maximum encapsulation ([1]; DSPC/Chol (55:45), 300 mM MnSO4, preloaded with doxorubicin, A23187 ionophore-mediated loading, 50° C., weight ratio 0.05:1): 40 min

Compound: Cobalt
- precipitation after addition of triethanolamine: Chloride [3, 7]: no ppt
- precipitation after addition of triethanolamine: Sulfate [3, 7]: no ppt
- precipitation after addition of triethanolamine: Chloride [3, 8]: no ppt
- precipitation after addition of triethanolamine: Sulfate [3, 8]: no ppt
